Key:
dogs and cats = settings: cited from earlier work
rat isolated liver [1] = assay: Test Example 5: bile flow of cold preserved rat isolated liver, compound added to rinse solution; settings: added to Krebs-Ringer rinse solution perfused for 40 minutes after 16-hour cold storage
Protocol: The perfusion protocol of the Test Example 4 was repeated except for the test compound 1 and the test compound 2 were added to the Krebs-Ringer solution, i.e. the rinse solution perfused for 40 minute's to determine the recovery of the bile flow.

rat isolated liver [2] = assay: Test Example 4: bile flow of rat isolated liver, compound added to preservation solution; settings: 10 μM added to U-W preservation solution, 4° C., 16 hours storage; 40 minutes reperfusion
Source text: Male Wister Rats were anesthetized with pentobarital sodium and hepatic-portal region was exposed by abdominal midline incision. The common bile duct was cannulated and the portal stem was inserted with a 19 gauge surflo® needle equipped with a three way stopcock. […] Treitz' ligament, the ligament around the liver, and diaphragm were cut and the liver was removed to the outside of the body and subjected to extracoporeal perfusion. The liver was subjected to a fifteen minutes of pre-perfusion until its oxygen consumption achieved to constant and then, the perfusate was exchanged with University of Wisconsin solution (U-W solution) at 4° C. Immediately after finish of the exchange, the liver connected with the three-way stopcock was removed from the perfusion cycle and the inlet was clamped. Then the liver was putted into the U-W solution at the same temperature and stored for 16 hours. […] During the reperfusion period, bile flow was determined every 5 minutes.
In the above perfusion protocol, 10 μM of test compound 1 or test compound 2 (13,14-dihydro-15-keto-16,16-difluoro-17(R)-methyl-prostaglandin E1) were added to the U-W solution to determine the effects of these drugs on recovery of bile flow.

implanted liver = settings: added to liver preservation solution; rat liver transplantation model; cited from earlier work
normal rats = assay: Test Example 1: bile flow in normal rats after oral administration; format: in vivo, rat; settings: 100 μg/kg orally 3 times a day for 7 days; bile collected on day 8, 1 to 2 hours after cannulation; vs vehicle
Protocol: Male Wister rats were used. 100 μg/kg of test compound 1 (13,14-dihydro-15-keto-16, 16-difluoro-18(S)-methyl-prostaglandin E1) was administered orally to the test group animals (n=8) 3 times a day for 7days. To the control group animals (n=7), the same volume of the vehicle, i.e. 0.01% polysorbate 80, 0.5% ethanol in distilled water was administered. At the next day after the final administration (day 8), the common bile duct of the respective rat was cannulated under ether anesthesia and the rat was placed in ball man gauge for 1 hour to recover from anesthesia. The bile discharged over one hour time period, i.e. from 1 to 2 hours of the cannulation, was collected and determined bile flow.

[3] = test system: anoxia/re-oxygenation perfused rat liver; assay: Test Example 3: bile flow recovery of anoxia/re-oxygenation perfused rat liver; settings: 10 μM added at re-oxygenation after 20 minutes of anoxia; vs vehicle
Protocol: Isolated perfused liver sample was prepared by the same manner as described in the test example 2. Each livers of test and control groups was perfused with Krebs-Ringer solution saturated with 95% N2 and 5% CO2 for 20 minutes to expose the liver oxygen-free condition. After that, Krebs-Ringer solution saturated with 95% O2 and 5% CO2 was perfused to re-oxygenize the liver. At the re-oxygenization step, 10 μM of the test compound 1 was added to the Krebs-Ringer solution for the test group.

perfused rat liver = assay: Test Example 2: bile flow of isolated perfused rat liver
Protocol: Male Wister rats were used. Each rat was cannulated for collection of bile under pentobarbital sodium anesthesia. A catheter was inserted and fixed in the portal vein. Krebs-Ringer solution saturated with 95% O2 and 5% CO2 (pH 7.4, 37° C.) was infused via the catheter at a constant flow rate of 4.0 ml/min/g liver weight by means of peristaltic pump to perfuse the liver. The liver was removed under perfusion. In case where the bile secretion was necessary to maintain being the physiological level, the liver was perfused with Krebs-Ringer solution supplemented with sodium taurocolate (30 μmol/l). For the test group animals, the test compound 1 was added to the Krebs-Ringer solution. Bile of the each animals including test and control groups was collected in every 5 minutes.

[4] = test system: porcine of which liver was replaced by transplantation; settings: intraportal administration; cited from earlier work

Compound: CCCCC[C@H](O)/C=C/[C@@H]1[C@@H](C/C=C\CCCC(=O)O)[C@@H](O)C[C@H]1O [PGF2a]
- cholagogic effect (dogs and cats): cholagogic effect

Compound: CCCC(C)C(F)(F)C(=O)CCC1C(O)CC(=O)C1CCCCCCC(=O)O [test compound 2, 13,14-dihydro-15-keto-16,16-difluoro-17(R)-methyl-prostaglandin E1]
- bile flow in reperfusion of cold preserved rat liver (rat isolated liver [1]): significantly increased
- bile flow at the reperfusion step (rat isolated liver [2]): increased the bile flow at the reperfusion step significantly

Compound: CCCCC[C@H](O)/C=C/[C@H]1C=CC(=O)[C@@H]1CCCCCCC(=O)O [PGA1]
- cholagogic effect (dogs and cats): cholagogic effect

Compound: CCCCC[C@H](O)/C=C/[C@@H]1[C@H]2C/C(=C/CCCC(=O)O)O[C@H]2C[C@H]1O [prostacyclin]
- cholagogic effect (dogs and cats): cholagogic effect

Compound: CCCC[C@H](C)C[C@H](O)/C=C/[C@@H]1C2CC(CCCCC(=O)O)=CC2C[C@H]1O (stereo partly shown) [TEI-9063]
- bile producing activity of the implanted liver (implanted liver): improved bile producing activity

Compound: CCCCC[C@H](O)/C=C/[C@H]1[C@H](O)CC(=O)[C@@H]1C/C=C\CCCC(=O)O [PGE2]
- cholagogic effect (dogs and cats): cholagogic effect

Compound: CC[C@H](C)CC(F)(F)C(=O)CC[C@H]1[C@H](O)CC(=O)[C@@H]1CCCCCCC(=O)O [test compound 1, 13,14-dihydro-15-keto-16,16-difluoro-18(S)-methyl-prostaglandin E1]
- normal rat bile flow (normal rats): significantly increased
- bile flow in reperfusion of cold preserved rat liver (rat isolated liver [1]): significantly increased
- bile flow at the reperfusion step (rat isolated liver [2]): increased the bile flow at the reperfusion step significantly
- bile flow recovery after anoxia/re-oxygenation [3]: significantly increased the bile flow
- bile flow of the perfused rat liver (perfused rat liver; compound added to Krebs-Ringer perfusate): significantly increased bile flow
- cholagogic effect, dose dependence (perfused rat liver; under the presence of bile acid (sodium taurocolate 30 μmol/l)): dose dependent cholagogic effect
- bile flow, presence (TC(+)) or absence (TC(−)) of bile acid (perfused rat liver; with or without bile acid in the perfusate): increased the bile flow irrespective of the presence or absence of bile acid

Compound: CCCCC[C@H](O)/C=C/[C@H]1[C@H](O)CC(=O)[C@@H]1CCCCCCC(=O)O [PGE1, prostaglandin E1]
- cholagogic effect (dogs and cats): cholagogic effect
- bile flow [4]: increased the bile flow
